Data on 3 compounds can be found in patent US20030194376A1, “Ultrasound contrast agents and methods of making and using them” (Bracco International B.V., priority 1990, published 2003).

The series is described as follows: Water solubility of the filling gas (Bunsen coefficient, Gas Encyclopaedia). To be noted: gas solubility divided by square root of molecular weight. The series is classed as physicochemical. The source says: In the Tables, the water solubility factors have also been taken from the aforecited Gas Encyclopaedia from “L'Air Liquide”, Elsevier Publisher (1976).

`FC(F)(F)Br` [CBrF3]: the “S gas {square root} Mw” value was “.0004”.

For `FC(F)(F)F` [CF4], the “S gas {square root} Mw” value was “.0004”.

As to `[Kr]` [Kr, Krypton], the “S gas {square root} Mw” value is recorded as “.006”.
